Laboratory results as given in PubChem BioAssay (NCI).
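Interpolation was linear, between the two tested concentrations surrounding the appropriate level; five concentrations were tested over 48 hours in 96-well plates. Definition used: TGI = concentration required for complete inhibition of growth.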

How the values were obtained:
Assay in all cases: NCI-60 cell line screen, 48 h
786-0 renal = tested on: 786-0 renal
DLD-1 colon = tested on: DLD-1 colon
DMS 114 small cell lung = tested on: DMS 114 small cell lung
DMS 273 small cell lung = tested on: DMS 273 small cell lung
DU-145 prostate = tested on: DU-145 prostate
EKVX NSCLC = tested on: EKVX NSCLC
HCT-15 colon = tested on: HCT-15 colon
HOP-18 NSCLC = tested on: HOP-18 NSCLC
M19-MEL melanoma = tested on: M19-MEL melanoma
MCF7 breast = tested on: MCF7 breast
OVCAR-4 ovarian = tested on: OVCAR-4 ovarian
SF-268 CNS = tested on: SF-268 CNS
SF-295 CNS = tested on: SF-295 CNS
SK-MEL-28 melanoma = tested on: SK-MEL-28 melanoma
SR leukemia = tested on: SR leukemia
T-47D breast = tested on: T-47D breast
TK-10 renal = tested on: TK-10 renal
U251 CNS = tested on: U251 CNS
UACC-62 melanoma = tested on: UACC-62 melanoma
NCI-H23 lung = tested on: NCI-H23 lung

`COc1cc2c(c(OC)c1OC)-c1ccc(OC)c(=O)cc1C(NC(=O)COc1ccccc1)CC2` (centres undefined) showed a TGI (786-0 renal) of 93.8 µM, a TGI (DLD-1 colon) of over 100 µM and a TGI (DMS 114 small cell lung) of under 0.01 µM. It also gave a TGI (DMS 273 small cell lung) of over 100 µM, a TGI (DU-145 prostate) of under 0.01 µM and a TGI (EKVX NSCLC) of over 100 µM. For the same molecule, the TGI (HCT-15 colon) was over 100 µM, the TGI (HOP-18 NSCLC) was over 100 µM and the TGI (M19-MEL melanoma) was over 100 µM. The TGI (MCF7 breast) was over 49.4 µM, the TGI (OVCAR-4 ovarian) was over 84 µM and the TGI (SF-268 CNS) was 61.6 µM. For the same molecule, the TGI (SF-295 CNS) was 0.0874 µM, the TGI (SK-MEL-28 melanoma) was over 100 µM and the TGI (SR leukemia) was 8.93 µM. The TGI (T-47D breast) was over 100 µM, the TGI (TK-10 renal) was over 93.7 µM and the TGI (U251 CNS) was 13 µM. It also gave a TGI (UACC-62 melanoma) of over 100 µM.
With `Cc1ccc2c(c1)SC1=Nc3sc4cc(C)ccc4[n+]3CN12` the TGI (786-0 renal) was over 100 µM, the TGI (DU-145 prostate) was over 100 µM and the TGI (EKVX NSCLC) was 45.4 µM. The TGI (HCT-15 colon) was over 100 µM, the TGI (MCF7 breast) was over 100 µM and the TGI (NCI-H23 lung) was 13.6 µM. The TGI (OVCAR-4 ovarian) was 29.6 µM, the TGI (SF-268 CNS) was over 100 µM and the TGI (SK-MEL-28 melanoma) was 29.2 µM. For the same molecule, the TGI (T-47D breast) was 8.75 µM, the TGI (TK-10 renal) was 48 µM and the TGI (U251 CNS) was 19 µM. The TGI (UACC-62 melanoma) was 16.6 µM.
For `CC(C)(C)[Si](OC1CCOC1=O)(c1ccccc1)c1ccccc1` (centres undefined), the TGI (DLD-1 colon) was over 100 µM, the TGI (EKVX NSCLC) was over 100 µM and the TGI (HCT-15 colon) was 61.5 µM. The TGI (HOP-18 NSCLC) was 80.9 µM, the TGI (M19-MEL melanoma) was 39.1 µM and the TGI (NCI-H23 lung) was 77.1 µM. The TGI (SF-268 CNS) was over 100 µM, the TGI (SF-295 CNS) was 60.2 µM and the TGI (SK-MEL-28 melanoma) was 62.6 µM. The TGI (SR leukemia) was over 10 µM, the TGI (TK-10 renal) was 84.6 µM and the TGI (U251 CNS) was 30.1 µM. For the same molecule, the TGI (UACC-62 melanoma) was 29.3 µM.
With `C[C@@H]1C[C@H]2[C@@H]3CCC4=CC(=O)C=C[C@]4(C)[C@@]3(F)[C@@H](O)C[C@]2(C)[C@@]1(O)C(=O)CO` the TGI (786-0 renal) was over 100 µM, the TGI (DLD-1 colon) was over 100 µM and the TGI (DMS 114 small cell lung) was over 100 µM. It also gave a TGI (EKVX NSCLC) of over 100 µM, a TGI (HCT-15 colon) of over 100 µM and a TGI (M19-MEL melanoma) of over 100 µM. It also gave a TGI (NCI-H23 lung) of over 100 µM, a TGI (OVCAR-4 ovarian) of over 100 µM and a TGI (SK-MEL-28 melanoma) of over 100 µM. For the same molecule, the TGI (SR leukemia) was over 100 µM, the TGI (TK-10 renal) was over 100 µM and the TGI (UACC-62 melanoma) was over 100 µM.
For `C[n+]1cccc(NC(=O)c2ccc(NC(=O)C34CCC(C(=O)Nc5ccc(C(=O)Nc6ccc[n+](C)c6)cc5)(CC3)CC4)cc2)c1`, the TGI (786-0 renal) was over 100 µM, the TGI (DLD-1 colon) was over 100 µM and the TGI (DMS 114 small cell lung) was over 100 µM. It also gave a TGI (DMS 273 small cell lung) of 25.9 µM, a TGI (EKVX NSCLC) of over 100 µM and a TGI (HCT-15 colon) of over 100 µM. The TGI (HOP-18 NSCLC) was over 100 µM, the TGI (M19-MEL melanoma) was over 100 µM and the TGI (NCI-H23 lung) was over 100 µM. It also gave a TGI (OVCAR-4 ovarian) of over 100 µM, a TGI (SF-268 CNS) of over 100 µM and a TGI (SF-295 CNS) of over 100 µM. For the same molecule, the TGI (SK-MEL-28 melanoma) was over 100 µM, the TGI (SR leukemia) was over 100 µM and the TGI (U251 CNS) was over 100 µM. For the same molecule, the TGI (UACC-62 melanoma) was over 100 µM.
`CNC(=O)OCc1nc(SC)n(C)c1CO` showed a TGI (DLD-1 colon) of over 100 µM, a TGI (DMS 114 small cell lung) of over 100 µM and a TGI (DMS 273 small cell lung) of over 100 µM. It also gave a TGI (EKVX NSCLC) of over 100 µM, a TGI (HCT-15 colon) of over 100 µM and a TGI (HOP-18 NSCLC) of over 100 µM. For the same molecule, the TGI (M19-MEL melanoma) was over 100 µM, the TGI (MCF7 breast) was over 100 µM and the TGI (NCI-H23 lung) was over 100 µM. The TGI (OVCAR-4 ovarian) was over 100 µM, the TGI (SF-268 CNS) was over 100 µM and the TGI (SF-295 CNS) was over 100 µM. For the same molecule, the TGI (SK-MEL-28 melanoma) was over 100 µM, the TGI (U251 CNS) was over 100 µM and the TGI (UACC-62 melanoma) was over 100 µM.
In the case of `C[C@H]1C[C@@H]2[C@H]([C@@H](O)C[C@@]3(C)[C@H]2CC[C@]3(O)C(=O)CO)[C@@]2(C)C=CC(=O)C=C12`, the TGI (786-0 renal) is reported as over 100 µM, the TGI (DLD-1 colon) is reported as over 100 µM and the TGI (DMS 114 small cell lung) is reported as over 100 µM. It also gave a TGI (DMS 273 small cell lung) of over 100 µM, a TGI (HCT-15 colon) of over 100 µM and a TGI (HOP-18 NSCLC) of over 100 µM. It also gave a TGI (M19-MEL melanoma) of over 100 µM, a TGI (NCI-H23 lung) of over 100 µM and a TGI (OVCAR-4 ovarian) of over 100 µM. It also gave a TGI (SK-MEL-28 melanoma) of over 100 µM, a TGI (SR leukemia) of over 100 µM and a TGI (TK-10 renal) of over 100 µM. For the same molecule, the TGI (UACC-62 melanoma) was over 100 µM.
`CCCCc1ccc(N=C(N)N)cc1` showed a TGI (786-0 renal) of 48.8 µM, a TGI (DU-145 prostate) of over 100 µM and a TGI (EKVX NSCLC) of over 100 µM. It also gave a TGI (HCT-15 colon) of over 100 µM, a TGI (MCF7 breast) of 46.3 µM and a TGI (NCI-H23 lung) of over 100 µM. The TGI (OVCAR-4 ovarian) was over 100 µM, the TGI (SF-268 CNS) was over 100 µM and the TGI (SF-295 CNS) was 87.3 µM. For the same molecule, the TGI (SK-MEL-28 melanoma) was over 100 µM, the TGI (T-47D breast) was over 100 µM and the TGI (TK-10 renal) was 63.9 µM. For the same molecule, the TGI (U251 CNS) was over 100 µM and the TGI (UACC-62 melanoma) was over 100 µM.
Molecule `COC1/C=C(C)/C=C/C(C)/C=C/C(=O)OC(/C(C)=C/C=C(\C)CNC(=O)[C@H](CO)NC=O)C(C)/C=C/C=C/C(OC)CC/C=C(C)/C=C/C1` (some centres undefined) has a TGI (786-0 renal) of over 1 µM, a TGI (DU-145 prostate) of over 1 µM and a TGI (EKVX NSCLC) of over 1 µM. The TGI (HCT-15 colon) was over 1 µM, the TGI (MCF7 breast) was over 1 µM and the TGI (NCI-H23 lung) was over 0.859 µM. The TGI (OVCAR-4 ovarian) was over 1 µM, the TGI (SF-268 CNS) was over 1 µM and the TGI (SF-295 CNS) was 0.0534 µM. It also gave a TGI (SK-MEL-28 melanoma) of over 1 µM, a TGI (T-47D breast) of over 1 µM and a TGI (TK-10 renal) of over 1 µM. For the same molecule, the TGI (U251 CNS) was over 1 µM and the TGI (UACC-62 melanoma) was 0.0553 µM.
